Data published in patent US20240009160A1, “USE OF (S)-3-AMINO-4-(DIFLUOROMETHYLENYL)CYCLOPENT-1-ENE-1-CARBOXYLIC ACID IN THE TREATMENT OF CANCER” (Ovid Therapeutics, Inc., priority 2022, published 2024).
Read-outs that look alike come from different tables or passages of the source.

How the values were obtained:
[1] = Plasma protein binding, rat; format: in vitro ADME; conditions: 37° C., one range given for rat, dog and human, read-out: bound to plasma proteins
Protocol: (§1) (S)-3-amino-4-(difluoromethylenyl)cyclopent-1-ene-1-carboxylic acid was minimally bound (4 to 20%) to proteins in rat, dog, and human plasma at 37° C.

[2] = 45-day oral tolerability and electroretinogram study, head-to-head with vigabatrin; format: in vivo, mice
Protocol: (§2) In adult mice, an acute no-observed adverse-effect level (NOAEL) of 6 mg/kg by mouth was determined by evaluating behavioral neurotoxicity in naive animals. […] Based on these findings, it is clear that the inhibition of GABA-AT by (S)-3-amino-4-(difluoromethylenyl)cyclopent-1-ene-1-carboxylic acid is not necessarily associated with vigabatrin-like retinal toxicity.

hERG channel = hERG channel (Homo sapiens, UniProt Q12809); assay: hERG channel activity in vitro
[3] = Plasma protein binding, human; format: in vitro ADME; conditions: 37° C., one range given for rat, dog and human, read-out: bound to plasma proteins
Protocol: as §1

[4] = Non-GLP 10-day repeat dose toxicity study in dogs; format: in vivo
Protocol: (§3) A non-GLP safety assessment for changes in retinal function and structure were evaluated in rats. […] In addition, toxicity of (S)-3-amino-4-(difluoromethylenyl)cyclopent-1-ene-1-carboxylic acid was assessed in non-GLP single-dose and repeat dose toxicity studies in rats and dogs. […] (S)-3-amino-4-(difluoromethylenyl)cyclopent-1-ene-1-carboxylic acid was not genotoxic in the Ames assay. The Ames assay is a well-known method that uses several strains of the bacterium Salmonella typhimurium to test whether a given chemical can cause mutations in the DNA of the test organism. No CNS or cardiovascular safety liabilities were identified in an Irwin study in mice. The Irwin observation test is commonly used to evaluate the effects of a new substance on behavior and physiological function. Roux et al., Curr Protoc Pharmacol. 2005 Jan. 1; Chapter 10:Unit 10.

[5] = Clearance in human hepatocytes; format: in vitro ADME; conditions: read-out: intrinsic clearance (CIint)
[6] = Clearance in dog hepatocytes; format: in vitro ADME; conditions: read-out: intrinsic clearance (CIint)
[7] = Pharmacokinetics after oral administration in dog; format: in vivo
[8] = Plasma protein binding, dog; format: in vitro ADME; conditions: 37° C., one range given for rat, dog and human, read-out: bound to plasma proteins
Protocol: as §1

[9] = Clearance in rat hepatocytes; format: in vitro ADME; conditions: read-out: intrinsic clearance (CIint)
[10] = Genetic toxicity in vitro
[11] = Non-GLP safety assessment of retinal function and structure; format: in vivo, rats
Protocol: as §3

[12] = Non-GLP 10-day repeat dose toxicity study in rats; format: in vivo; conditions: for human dose converted from tolerated rat dose: Reagan-Shaw conversion
Protocol: as §3

[13] = Acute behavioral neurotoxicity in naive adult mice; conditions: in vivo, oral
Protocol: as §2

[14] = Pharmacokinetics after oral administration in rat; conditions: in vivo
Salmonella typhimurium = format: cell-based
Protocol: as §3

hERG channel, sequence (Q12809 whole entry): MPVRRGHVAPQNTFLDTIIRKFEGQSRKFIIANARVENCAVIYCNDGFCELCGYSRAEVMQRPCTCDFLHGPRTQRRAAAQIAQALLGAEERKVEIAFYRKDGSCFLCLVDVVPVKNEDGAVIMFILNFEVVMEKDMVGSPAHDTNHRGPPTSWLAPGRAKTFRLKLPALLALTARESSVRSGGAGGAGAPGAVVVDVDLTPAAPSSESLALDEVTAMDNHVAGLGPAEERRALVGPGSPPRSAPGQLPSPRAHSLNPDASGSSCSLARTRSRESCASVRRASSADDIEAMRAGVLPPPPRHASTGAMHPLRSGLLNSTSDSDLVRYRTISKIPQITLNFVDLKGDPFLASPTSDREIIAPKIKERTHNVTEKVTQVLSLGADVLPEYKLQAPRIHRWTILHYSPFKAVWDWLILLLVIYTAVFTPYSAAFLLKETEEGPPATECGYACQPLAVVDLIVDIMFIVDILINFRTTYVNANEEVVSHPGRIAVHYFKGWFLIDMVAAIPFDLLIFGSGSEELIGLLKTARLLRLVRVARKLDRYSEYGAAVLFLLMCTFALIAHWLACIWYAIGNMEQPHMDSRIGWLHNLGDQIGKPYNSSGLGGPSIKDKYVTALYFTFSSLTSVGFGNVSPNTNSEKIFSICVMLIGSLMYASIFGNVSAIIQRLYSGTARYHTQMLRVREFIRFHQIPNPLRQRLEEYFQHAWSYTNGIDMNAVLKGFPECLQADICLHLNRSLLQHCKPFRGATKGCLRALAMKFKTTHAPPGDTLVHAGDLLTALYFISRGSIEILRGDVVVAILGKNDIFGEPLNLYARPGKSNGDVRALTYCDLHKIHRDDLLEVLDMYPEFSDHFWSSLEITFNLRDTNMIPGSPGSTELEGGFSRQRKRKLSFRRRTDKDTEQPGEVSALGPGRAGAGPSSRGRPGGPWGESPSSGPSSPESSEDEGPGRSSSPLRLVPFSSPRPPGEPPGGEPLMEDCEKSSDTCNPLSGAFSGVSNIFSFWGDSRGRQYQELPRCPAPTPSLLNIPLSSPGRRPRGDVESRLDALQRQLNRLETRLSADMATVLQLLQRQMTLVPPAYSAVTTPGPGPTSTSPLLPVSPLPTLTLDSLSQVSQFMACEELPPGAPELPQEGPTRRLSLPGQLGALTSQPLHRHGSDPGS

Q: Which results are given for `N[C@H]1C=C(C(=O)O)CC1=C(F)F` [(S)-3-amino-4-(difluoromethylenyl)cyclopent-1-ene-1-carboxylic acid]?
A: fraction unbound [1]: 0.8 to 0.96; tolerability ([2]; 1 mg/kg/d by mouth for 45 days): well tolerated; human dose converted from tolerated mouse dose ([2]; from 1 mg/kg/day mouse, Reagan-Shaw conversion): 0.08 mg/kg/day; hERG channel activity (hERG channel): No evidence of genetic toxicity or hERG channel activity; fraction unbound [3]: 0.8 to 0.96; well tolerated dose, dogs ([4]; 10-day dosing, male and female dogs): up to 1.0 mg/kg; human dose converted from tolerated dog dose ([4]; from 1 mg/kg dog, Reagan-Shaw conversion): 1.54 mg/kg; CLint scaled [5]: 13.1 mL/min/kg; CLint scaled [6]: 8.97 mL/min/kg; exposure (AUC basis) in dogs compared with rats ([7]; equivalent oral doses): higher exposure; half-life ([7]; in vivo, dog, oral administration, read-out: elimination half-life (t½)): 75 to 90 min; Tmax ([7]; in vivo, dog, oral administration, read-out: time of maximum concentration (Tmax)): 15 to 30 min; fraction unbound [8]: 0.8 to 0.96; CLint scaled [9]: 24.3 mL/min/kg; genetic toxicity [10]: No evidence of genetic toxicity; human dose converted from tolerated rat dose ([11]; from 1 mg/kg/day rat (so in the source), Reagan-Shaw conversion): 0.48 mg/kg/day; well tolerated dose for all assessed ocular endpoints ([11]; rats, 45 days, fundoscopy, ERG, OCT and histological assessments, initial results): up to 3 mg/kg/day; well tolerated dose, female rats ([12]; 10-day dosing, female rats): ≤ 10 mg/kg; well tolerated dose, male rats ([12]; 10-day dosing, male rats): up to 15 mg/kg; human dose converted from tolerated rat dose ([12]; from 10 mg/kg rat): 1.62 mg/kg; human dose converted from tolerated rat dose ([12]; from 15 mg/kg rat): 2.4 mg/kg; NOAEL ([13]; from 6 mg/kg mouse, Reagan-Shaw conversion, read-out: human dose converted from mouse NOAEL): 0.49 mg/kg; NOAEL ([13]; mouse, adult mice, by mouth, behavioral neurotoxicity, read-out: acute no-observed adverse-effect level (NOAEL)): 6 mg/kg; half-life ([14]; read-out: elimination half-life (t½)): 75 to 90 min; Tmax ([14]; read-out: time of maximum concentration (Tmax)): 15 to 30 min; genotoxicity in the Ames assay (Salmonella typhimurium): not genotoxic

Q: With `C=CC(N)CCC(=O)O` (stereo not shown) [vigabatrin, reference compound] as the molecule, how does the “retinal B-wave amplitudes” value ([2]; mouse, in vivo) read?
A: Its value is “reductions in retinal B-wave amplitudes”.

Q: What about the weight ([2]; mouse, in vivo) of the same molecule?
A: Its weight is “marked reduction in weight”.
